These results are taken from patent EP0513240B1, “LIQUID HARD SURFACE DETERGENT COMPOSITIONS CONTAINING ZWITTERIONIC DETERGENT SURFACTANT AND MONOETHANOLAMINE AND/OR BETA-AMINOALKANOL” (THE PROCTER & GAMBLE COMPANY, priority 1990, dated 1991).

Marks after values point to notes of the source that are not given here.

The first series can be described thus: Solubility of selected diols in 20°C water. It is filed as physicochemical. As to conditions: determined via laboratory measurements (values marked *). On the procedure: A particularly preferred type of solvent for these hard surface cleaner compositions comprises diols having from 6 to 16 carbon atoms in their molecular structure. Preferred diol solvents have a solubility in water of from about 0.1 to about 20 g/100 g of water at 20°C.
In the case of `OCC1CCC(CO)CC1` (stereo not shown) [1,4-Cyclohexanedimethanol], the Solubility was 20.0* g/100g H2O.
Still for that read-out and setting: the result for `CCCCCCC(O)CO` (stereo not shown) [1,2-Octanediol] reads 1.0* g/100g H2O.
Same read-out and setting: the result for `CC(O)(CO)c1ccccc1` (stereo not shown) [2-Phenyl-1,2-propanediol] reads 12.0* g/100g H2O.
The same measure, in the same setting: the figure for `OCC(O)c1ccccc1` (stereo not shown) [Phenyl-1,2-ethanediol] is 12.0* g/100g H2O.

Assay in a further series: not given
As to conditions: in 20°C water; values from published literature; cited from earlier work.
In the case of `CC(C)C(O)C(C)(C)CO` (stereo not shown) [2,2,4-Trimethyl-1,3-pentanediol], the Solubility is on record as 1.9 g/100g H2O.
As for `CC(C)(O)CCC(C)(C)O` [2,5-Dimethyl-2,5-hexanediol], the Solubility is on record as 14.3 g/100g H2O.
Regarding `CCCC(O)C(CC)CO` (stereo not shown) [2-Ethyl-1,3-hexanediol], the Solubility is given as 4.2 g/100g H2O.
